Results taken from patent US12428455B2, “Dominant negative CEBPB and CEBPD proteins and methods of use for decreasing viability of neoplastic cells” (The Trustees of Columbia University in the City of New York, priority 2018, dated 2025).
No end group written: not given here.

Legend:
Type in all cases: cell-based
T98G cells = test: Combination with paclitaxel, cell number, T98G; details: 1 nM or 5 nM paclitaxel and 3, 10 or 20 μM peptide, 6 days
Procedure: (§1) Replicate cultures of T98G, MDA-MB 231, and MCF7 cells were treated with 1 nM or 5 nM paclitaxel and 3 μM, 10 μM, or 20 μM CP-dn-CEBPB and CP-dn-CEBPD peptides, maintained for 6 days, and then assessed for cell number. The bar graphs of FIGS. 26A (T98G, CP-dn-CEBPB), 26C (T98G, CP-dn-CEBPBD, 26E (MDA-MB-231, CP-dn-CEBPBD), 26G (MDA-MB-231, CP-dn-CEBPD), 26I (MCF7, CP-dn-CEBPBB), and 26K (MCF7, CP-dn-CEBPBD) show relative cell numbers for each condition as compared to untreated controls. The line graphs of FIGS. 26B (T98G, CP-dn-CEBPB), 26D (T98G, CP-dn-CEBPBD), 26F (MDA-MB-231, CP-dn-CEBPB), 26H (MDA-MB-231, CP-dn-CEBPD), 26J (MCF7, CP-dn-CEBPB), and 26L (MCF7 CP-dn-CEBPBD) show the response as normalized in each case so that 100 represents the relative number of surviving cells that received the indicated level of paclitaxel, but no peptide treatment. Calculated combination indices (CI) were as follows: MCF7: CI=0.41±0.04 for CP-dn-CEBPB; 0.44±0.04 for CP-dn-CEBPD; MDA-MB-231: 0.74±0.03 for CP-dn-CEBPB; 0.74±0.05 for CP-dn-CEBPD; T98G: CI=0.84±0.06 for CP-dn-CEBPB and 0.75±0.07 for CP-dn-CEBPD.

A375 melanoma cells = test: Cell number after peptide treatment, A375; details: 6 days, 0 μM to 50 μM; stock without BSA
Procedure: (§2) Replicate cultures were exposed to the peptides the for 6 days at the indicated concentrations. Stock solutions of the peptides were prepared in buffer without added bovine serum albumin (BSA).

[1] = system: T98G, MDA-MB 231, and MCF7 cells; test: Combination with paclitaxel, overall conclusion; details: co-treatment, cell number or colony number
Procedure: as §1
Replicate cultures of MDA-MB-231 cells in soft agar were treated with 0.1 nM or 0.5 nM 50 nM or 500 nM CP-dn-CEBPB and CP-dn-CEBPD peptides, maintained for 12 days, and then assessed for colony number. […]

[2] = system: HCT116 colon cancer cells; test: Cell number after peptide treatment, HCT116; details: 6 days, 0 μM to 50 μM; stock without BSA
Procedure: as §2
Replicate cultures of HCT116, MDA-MB 231, MCF7, and T98G cells were exposed to a 50/50 by concentration mixture of CP-DN-CEBPB and CP-DN-CEBPD for 6 days at doses of 0 μM to 50 μM. Stock solutions of the peptides were prepared in buffer without added bovine serum albumin (BSA).
Replicate cultures of T98G, HCT116, MDA-MB 231, and MCF7 cells were exposed to CP-DN-CEBPB, CP-DN-CEBPD, or a CP-DN-CEBPD in which heptad repeat leucine residues were mutated to glycine residues for 6 days at doses of 0 μM to 50 μM. Stock solutions of the peptides were prepared in buffer without added bovine serum albumin (BSA).

[3] = system: B16 murine melanoma cells; test: Cell number after peptide treatment, B16; details: 6 days, 0 μM to 50 μM; stock without BSA
Procedure: as §2

MDA-MB 231 cells [4] = test: Colony forming activity on culture plates, MDA-MB 231; details: 6 days; doses 0.05, 0.5 and 5 μM
Procedure: (§3) T98G (FIG. 21A), MDA-MB 231 (FIG. 21B), and HCT116 (FIG. 21C) cells were exposed to CP-DN-CEBPB and CP-DN-CEBPD for 6 days at doses of 0.05 μM 0.5 μM, and 5 μM while growing in soft agar. Growth was inhibited by does as low as 0.5 μM. T98G (FIG. 21D), MDA-MB 231 (FIG. 21E), and HCT116 (FIG. 21F) cells were exposed to CP-DN-CEBPB and CP-DN-CEBPD for 6 days at doses of 0.05 μM 0.5 μM, and 5 μM while growing on culture plates. Growth was inhibited by does as low as 0.5 μM.

HCT116 cells = test: Colony forming activity in soft agar, HCT116; details: 6 days; doses 0.05, 0.5 and 5 μM
Procedure: as §3

MDA-MB 231 cells [5] = test: Combination with chloroquine, cell number, MDA-MB 231; details: 5 μM or 10 μM chloroquine and 3 μM or 10 μM peptide, 6 days
Procedure: Replicate cultures of T98G, MDA-MB 231, and HCT116 cells were treated with 5 μM or 10 μM chloroquine and 3 μM or 10 μM CP-dn-CEBPB and CP-dn-CEBPD peptides, maintained for 6 days, and then assessed for cell number. The bar graphs of FIGS. 29A (T98G, CP-dn-CEBPB), 29C (T98G, CP-dn-CEBPBD, 29E (MDA-MB-231, CP-dn-CEBPBD), 29G (MDA-MB-231, CP-dn-CEBPD), 29I (HCT116, CP-dn-CEBPBB), and 26K (HCT116, CP-dn-CEBPBD) show relative cell numbers for each condition as compared to untreated controls. The line graphs of FIGS. 26B (T98G, CP-dn-CEBPB), 26D (T98G, CP-dn-CEBPBD), 26F (MDA-MB-231, CP-dn-CEBPB), 26H (MDA-MB-231, CP-dn-CEBPD), 26J (HCT116, CP-dn-CEBPB), and 26L (HCT116 CP-dn-CEBPBD) show the response as normalized in each case so that 100 represents the relative number of surviving cells that received the indicated level of chloroquine, but no peptide treatment. The results ranged from near-additive (HCT116 cells, CI=0.92±0.08 for CP-dn-CEBPB and 0.87±0.07 for CP-dn-CEBPD) to apparent synergy (T98G, CI=0.56±0.06 for CP-dn-CEBPB and 0.75±0.03 for CP-dn-CEBPD; MDA-MB-261, CI=0.59±0.11 for CP-dn-CEBPB and 0.47±0.05 for CP-dn-CEBPD).

RQIKIWFQNRRMKWKKLETQHKVLELTAENERLQKKVEQLSRELSTLRNLFKQL [CP-DN-CEBPB]
combination index (CI) with paclitaxel (T98G cells): 0.84±0.06
growth and survival of A375 cells (A375 melanoma cells): decrease in growth and survival
kind of combined effect with paclitaxel [1]: synergistic effect
growth and survival / numbers of HCT116 cells [2]: decrease in growth and survival
growth and survival of B16 cells [3]: decrease in growth and survival
lowest dose at which growth was inhibited, culture plates (MDA-MB 231 cells [4]): 0.5 µM
lowest dose at which growth was inhibited, soft agar (HCT116 cells): 0.5 µM
CI with chloroquine (MDA-MB 231 cells [5]): 0.59±0.11

RQIKIWFQNRRMKWKKLVELSAENEKLHQRVEQLTRDLAGLRQFFK [CP-DN-CEBPD]
combination index (CI) with paclitaxel (T98G cells): 0.75±0.07
growth and survival of A375 cells (A375 melanoma cells): decrease in growth and survival
kind of combined effect with paclitaxel [1]: synergistic effect
growth and survival / numbers of HCT116 cells [2]: decrease in growth and survival
growth and survival of B16 cells [3]: decrease in growth and survival
lowest dose at which growth was inhibited, culture plates (MDA-MB 231 cells [4]): 0.5 µM
lowest dose at which growth was inhibited, soft agar (HCT116 cells): 0.5 µM
CI with chloroquine (MDA-MB 231 cells [5]): 0.47±0.05
